Like-named read-outs stand apart in the source and are kept apart here.

In assay [1] the test system is HCT116R. Nature of the assay: degree of apoptosis by cytofluorometry, Mitocapture dye. The class given is cell-based. Particulars: treated 24 hours. The method, then: (§1) Legend to FIGS. 3A and 3B: cells HCT116 (and R) and SW620 (and R) are treated, prior to determination of the degree of apoptosis, for 24 hours by arsenic trioxide (As), lonidamine (LND) or are left without treatment (control, Co). The degree of apoptosis is then determined by cytofluorometry after labeling with the dye “Mitocapture” which fluoresces differently in apoptotic cells and intact cells (with relation to mitochondrial integrity).

Assay [2] deals with SW620R. The description is as above. To be noted: treated 24 hours. The class given is cell-based. The method, then:
as §1

Assay [3] relates to SW620/R. The assay is described as follows: colorimetric cell growth test, medication incubated 48 hours. Particulars: for IC50: read-out: IC50 (concentration that reduces cell growth by 50%); for crossed resistance: SW620R versus SW620; for relative resistance (IC50 resistant clone / IC50 parental clone): SW620/R versus SW620.
The subject of assay [4] is HCT116/R. Described as above. Particulars: for crossed resistance: HCT116R versus HCT116; for IC50: read-out: IC50 (concentration that reduces cell growth by 50%); for relative resistance (IC50 resistant clone / IC50 parental clone): HCT116/R versus HCT116.
Assay [5] has as its system SW620. The assay is described as above. To be noted: for IC50: read-out: IC50 (concentration that reduces cell growth by 50%); for relative resistance (IC50 resistant clone / IC50 parental clone): SW620 (parental clone).
Assay [6] deals with HCT116. Described as above. Particulars: for IC50: read-out: IC50 (concentration that reduces cell growth by 50%); for relative resistance (IC50 resistant clone / IC50 parental clone): HCT116 (parental clone).
Assay [7] relates to HCT116/R1. The assay is described as follows: oxaliplatin resistance of variant line versus HCT116/S. It counts as cell-based. To be noted: HCT116/R1 clone. The text has this: the line HCT116/R1 derived from the line HCT116 after acquisition of oxaliplatin resistance and cloning (corresponding to a clone 30 times more resistant than the sensitive reference line HCT116/S),
Assay [8] relates to Bax protein in HCT116 cells. Nature of the assay: detection of Bax by Western blot. To be noted: HCT116, 15 μM for 48 hours (or 50 μM for 24 hours). The class given is cell-based. On the procedure:
(§2) Legend to FIG. 1: detection of Bax by Western blot in the absence of, or under the effect of treatment, with oxaliplatin in the HCT116 model. The cells are not treated or treated with oxaliplatin at a level of 15 μM for 48 hours (or 50 μM for 24 hours) before preparation of cell lysates. Tubulin expression is used as a control of equivalent protein deposits.

For assay [9], the system named is Bax protein in HCT116R cells. Nature of the assay: detection of Bax by Western blot. To be noted: 15 μM for 48 hours (or 50 μM for 24 hours). The class given is cell-based. On the procedure: as §2
In general terms: In western blotting, separated proteins are transferred to a membrane and probed.

In assay [10] the test system is HCT116R. Particulars: treated 48 hours. The method, then: A control is performed without contact with any medication (Co).
The subject of assay [11] is Caspase 3 in HCT116R cells. The assay is described as follows: activation of apoptosis effector protein Caspase 3. The class given is cell-based. To be noted: treated 24 hours. The method, then: (§3) A control is performed without contact with any medication (Co). The degree of apoptosis is then determined by cytofluorometry using labeling by annexine V. Independently, activation of the apoptosis effector protein Caspase 3 was evaluated in cells HCT116 and HCT116R after treatment for 24 hours with oxaliplatin in order to validate the entry into apoptosis of the cells as observed by cytofluorometry (FIG. 2C).

For assay [12], the system named is Bak in HCT116/Rev2 cells. Nature of the assay: Bak activation, active-conformation antibody, flow cytometry. The class given is cell-based. Particulars: HCT116/Rev2, 12, 24 or 48 hours with 15 μM. On the procedure: (§4) Legend to FIGS. 5A to 5E: Detection of activation of Bak by an antibody specific for the active conformation of Bak and intracellular analysis by flow cytometry. The cells are fixed, made permeable and then incubated with the antibody specific for the active conformation of […]. Finally visualization is carried out by incubation with the secondary antibody coupled to FITC. Labeling of untreated cells is shown by the curve in the fine black line. That of treated cells (12, 24 or 48 hours with 15 μM oxaliplatin) is shown by the curves in the thick black line. The appearance of strongly labeled cells (curves in the thick black line shifted to the right) gives evidence of activation of Bak. This experiment was reproduced two times.
In general terms: A flow cytometer gives signals particle by particle.

The subject of assay [13] is Bak in HCT116/R1 cells. The description is as above. The class given is cell-based. Particulars: HCT116/R1, 12, 24 or 48 hours with 15 μM. On the procedure:
as §4

The test system of assay [14] is Bak in HCT116/Rev1 cells. The assay is described as above. Particulars: HCT116/Rev1, 12, 24 or 48 hours with 15 μM. It counts as cell-based. The method, then: as §4
For assay [15], the system named is Bak in HCT116/R2 cells. Described as above. It counts as cell-based. Particulars: HCT116/R2, 12, 24 or 48 hours with 15 μM. The method, then:
as §4

Assay [16] has as its system Bax in HCT116/Rev1 cells. Nature of the assay: Bax activation, active-conformation antibody, flow cytometry. It counts as cell-based. Particulars: HCT116/Rev1, 12, 24 or 48 hours with 15 μM. The method, then:
(§5) Legend to FIGS. 4A to 4C: Detection of activation of Bax by an antibody specific for the active conformation of Bax and intracellular analysis by flow cytometry. The cells are fixed, permeabilized and then incubated with the antibody specific for the active conformation of […]. Finally visualization is carried out by incubation with the secondary antibody coupled with FITC. The labeling of untreated cells is shown by the curve in fine black line. That of treated cells (12, 24 or 48 hours with 15 μM oxaliplatin) is shown by the curves in thick black line. The appearance of strongly labeled cells (curves in thick black line shifted to the right) gives evidence of activation of Bax.

Assay [17] deals with Bax in HCT116/R1 cells. The description is as above. The class given is cell-based. To be noted: HCT116/R1, 12, 24 or 48 hours with 15 μM, compared to HCT116/S. The method, then: as §5
Assay [18] deals with Bax in HCT116/Rev1 cells. The assay is described as follows: overall level of Bax expression on exposure to oxaliplatin. It counts as cell-based. The text has this:
(§6) The overall level of Bax expression is equivalent for the lines HCT116/S, HCT116/R1 and HCT116/Rev1.

In assay [19] the test system is Bax in HCT116/R1 cells. The assay is described as above. It counts as cell-based.
Source text: as §6

Assay [20] deals with Bax in HCT116/S cells. The assay is described as above. The class given is cell-based.
Source text: as §6

Assay [21] deals with SW620R. The assay is described as follows: degree of apoptosis by cytofluorometry, annexine V labeling. The class given is cell-based. Particulars: treated 48 hours. The method, then:
as §3

Assay [22] concerns HCT116/Rev2. The assay is described as follows: oxaliplatin resistance of variant line versus HCT116/S. The class given is cell-based. Particulars: HCT116/Rev2, after culture without oxaliplatin for 15 months. The text has this:
the variant HCT116/Rev2 derived from the line HCT116/R2 after culture in the absence of oxaliplatin for 15 months. This variant is characterized by an only partial loss of oxaliplatin resistance (variant HCT116/Rev2 is 16 times more resistant than line HCT116/S).

Assay [23] deals with HCT116/Rev1. The assay is described as follows: oxaliplatin sensitivity of variant line versus HCT116/S. The class given is cell-based. Particulars: HCT116/Rev1, after culture without oxaliplatin for 6 months. The text has this:
the variant HCT116/Rev1 derived from the line HCT116/R1 after culture in the absence of oxaliplatin for 6 months.

Where [24] appears, read: SW620/R, 48 hours, average ± SD, at least three experiments.
[25] abbreviates: HCT116/R, 48 hours, average ± SD, at least three experiments.
[26] abbreviates: SW620, 48 hours, average ± SD, at least three experiments.
[27] abbreviates: HCT116, 48 hours, average ± SD, at least three experiments.

In the case of `O=C(O)c1nn(Cc2ccc(Cl)cc2Cl)c2ccccc12` [lonidamine], the “apoptotic induction (Mitocapture)” value in assay [1] and in assay [2] was “resistant to apoptotic induction” throughout.
For `CCc1c2c(nc3ccc(OC(=O)N4CCC(N5CCCCC5)CC4)cc13)-c1cc3c(c(=O)n1C2)COC(=O)[C@]3(O)CC` [Irinotecan], the IC50 in assay [3] (Homo sapiens, SW-620, 48 h) came out at 11.7 ± 2.5 µM; in [4] (Homo sapiens, HCT-116, 48 h), 9.5 ± 4.2 µM; in assay [5] (Homo sapiens, SW-620, 48 h) it was 23.3 ± 0.6 µM; in [6] (Homo sapiens, HCT-116, 48 h), 7.7 ± 3.8 µM. Further, the crossed resistance result in [3] and in [4] was “very little or no crossed resistance” throughout.
As to `N.N.[Cl][Pt][Cl]` [Cisplatin], the “relative resistance (IC50 resistant clone / IC50 parental clone)” value is reported as “(1.4)” in assay [3], “(2.9)” in [4], “(1.0)” in [5] and “(1.0)” in [6]. Besides, the crossed resistance result in assay [3] and in assay [4] was “very little or no crossed resistance” in each case. Further, the IC50 in assay [3] (setting [24]) came out at 9 ± 1.7 µM; in assay [4] (setting [25]), 13.4 ± 6.6 µM; in assay [5] (setting [26]), 7 ± 1.7 µM; in assay [6] (setting [27]) it was 4.7 ± 1.8 µM.
Take `O=C1[O][Pt]2([NH][C@@H]3CCCC[C@H]3[NH]2)[O]C1=O` [Oxaliplatin, [(1R, 2R)-1,2-cyclohexanediamine-N,N′] [oxalato (2-)-O,O′] platinum]: the “times more resistant than sensitive reference line HCT116/S” value in assay [7] is reported as 30 times. For the same compound, the “Bax protein expression (Western blot)” value in [8] was “over-expresses it”; in [9], “does not express the Bax protein”. For the same compound, the “induction of apoptosis (annexine V)” value in [10] and in assay [21] was “resist induction of apoptosis” throughout. For the same compound, the “relative resistance (IC50 resistant clone / IC50 parental clone)” value in assay [3] is 18.3; in assay [4], 68.4; in [5], 1.0; in assay [6] it was 1.0. Besides, the “times more resistant than the original line” value in assay [3] (SW620R versus SW620, as stated in text) worked out at 20 times. The IC50 was determined as 62.3 ± 12.9 µM in assay [3] (setting [24]), 21.9 ± 6.3 µM in assay [4] (setting [25]), 3.4 ± 0.6 µM in [5] (setting [26]) and 0.32 ± 0.08 µM in [6] (setting [27]). Besides, the “activation of caspase 3” value in assay [11] is “lack of activation of caspase 3”. Also, the “activation of Bak” value in [12] is “repeat the level of activation of Bak of the sensitive line HCT116/S”; in assay [13] it was “delayed”; in assay [14], “repeat the level of activation of Bak of the sensitive line HCT116/S”; in assay [15], “delayed”. Moreover, the “activation of Bax” value is “return to early activation of Bax” in assay [16]; “reduced and delayed” in [17]. Moreover, the “overall level of Bax expression” value in assay [18], in assay [19] and in assay [20] was “induces an over-expression of Bax” each time. In addition, the “times more resistant than line HCT116/S” value in [22] was found to be 16 times. Besides, in assay [23], the oxaliplatin sensitivity entry is on record as “comparable to HCT116/S”.

Values taken from patent publication US20060093575A1, “Oxaliplatin anti-resistance agent” (CENTRE NATIONAL DE LA RECHERCHE SCIENTIFIQUE, priority 2002, published 2006).
